Tested on: clathrin-dependent pathway or macro-pinocytosis pathway
Experiment: Effect of endocytosis pathway inhibitors on BTNP accumulation in cytoplasm in response to TTFields
Format: cell-based
Conditions: specific inhibitors of clathrin-dependent or macro-pinocytosis pathway
Excerpt: Nanoparticles (NPs) internalization into cells is known to be dependent on particle size and its zeta potential. NPs under 200 nm can be engulfed by cancer cells through clathrin-dependent pathway or macro-pinocytosis pathway. […] The data herein evidences that increased membrane permeability by TTFields can induce BTNP accumulation in cytoplasm of cancer cells.

Structure (SMILES) | accumulation of BTNPs in cytoplasm in response to TTFields
C=C1[C@@H](C)[C@H]2[C@H](Cc3ccccc3)NC(=O)[C@]23[C@H](OC(C)=O)/C=C/[C@@](C)(O)C(=O)[C@@H](C)C/C=C/[C@H]3[C@@H]1O [cytochalasin D] | did not modulate
CN(C)CCCN1c2ccccc2Sc2ccc(Cl)cc21 [chlorpromazine] | did not modulate
N=C(N)NC(=O)c1nc(Cl)c(N)nc1N [amiloride] | did not modulate
